Results as given in US20250339569A1, “CARBONIC ANHYDRASE IX LIGANDS” (priority 2021, published 2025).
Starred links: 1 amine or outer side, 2 acyl side, 3 side chain; linkers in the order of their positions; H or OH if unused. Positions of bridges follow the written chain, without caps; N, C: chain ends. Non-standard residues stand in square brackets, D forms with d. Residues, ends and D or L forms follow the SMILES beside them. *: point of attachment. NH(CH2)3NHDOTA = O=C(O)CN1CCN(CC(=O)O)CCN(CC(=O)NCCCN*)CCN(CC(=O)O)CC1; DOTA = O=C(O)CN1CCN(CC(=O)O)CCN(CC(=O)*)CCN(CC(=O)O)CC1; mXylylene = c1cc(C[*:1])cc(C[*:2])c1; X2 = O=C(CN1CCC(N[*:1])CC1)[*:2]

Columns and labels:
[1] = Plasma stability assay, mouse plasma; conditions: mouse plasma, 37°C, 4 h
[2] = biological target: T1, human carbonic anhydrase IX (hCAIX-Fc) (Homo sapiens, UniProt Q16790); assay: Surface plasmon resonance assay with hCAIX-Fc; assay type: binding; conditions: 25° C.; for t1/2 category (activity): SPR dissociation half-life, hCAIX-Fc; for Kd: SPR, hCAIX-Fc captured, read-out: pKD category (activity) (converted)
T1 construct: purchased SinoBliological (Sino Biological) 10107-H02H

[3] = biological target: T2, Recombinant soluble human NEP (Homo sapiens, UniProt P08473); assay: Proteolytic stability assay against NEP; assay type: in vitro ADME; conditions: 100 ng/mL NEP, 10 μM compound, 37°C
T2 construct: Recombinant soluble human NEP; purchased BioTechne, Wiesbaden, Germany
T2 sequence (P08473 52-750 limits assumed): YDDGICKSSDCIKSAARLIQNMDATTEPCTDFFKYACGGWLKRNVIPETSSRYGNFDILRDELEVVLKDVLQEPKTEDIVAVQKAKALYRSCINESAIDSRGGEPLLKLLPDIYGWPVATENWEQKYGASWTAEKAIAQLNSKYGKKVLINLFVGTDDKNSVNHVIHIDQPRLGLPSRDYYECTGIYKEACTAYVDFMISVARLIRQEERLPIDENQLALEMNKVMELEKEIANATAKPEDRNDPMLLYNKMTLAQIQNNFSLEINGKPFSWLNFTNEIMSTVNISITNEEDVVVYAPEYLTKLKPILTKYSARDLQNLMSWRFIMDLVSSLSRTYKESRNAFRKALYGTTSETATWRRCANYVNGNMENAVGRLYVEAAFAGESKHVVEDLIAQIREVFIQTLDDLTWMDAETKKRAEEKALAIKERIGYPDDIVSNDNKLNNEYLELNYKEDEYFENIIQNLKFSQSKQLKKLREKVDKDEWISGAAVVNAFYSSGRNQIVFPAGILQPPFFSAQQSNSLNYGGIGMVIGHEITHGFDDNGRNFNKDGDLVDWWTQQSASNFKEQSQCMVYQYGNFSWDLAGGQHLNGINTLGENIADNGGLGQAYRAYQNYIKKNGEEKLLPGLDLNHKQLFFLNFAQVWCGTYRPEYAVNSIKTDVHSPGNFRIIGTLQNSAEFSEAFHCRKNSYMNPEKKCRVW
Experimental: To assess the stability of compounds against NEP, the compounds were subjected to an in vitro assay based on the protocol described by Edelson et al. (Edelson et al., Pulmonary pharmacology & therapeutics, 2013, 26, 229-238).
Recombinant soluble human NEP (BioTechne, Wiesbaden, Germany) at a concentration of 100 ng/mL was mixed with the compound (10 μM) and a stable internal standard (10 μM) and incubated at 37° C. After several time points, samples were taken and analyzed with LC-MS.
The activity of NEP was examined using a commercially available chromogenic substrate of NEP.

[4] = biological target: T3, CAIX-expressing human HT-29 colorectal cancer cells (Homo sapiens, UniProt Q16790); assay: FACS binding assay (IC50 determination, competition with tracer 3BP-2776 or 3BP-4149); conditions: FACS competition on HT-29 cells, Tracer ID 3BP-2776 (10 nM, biotin-labeled), 4° C., 1 hour; read-out: pIC50 category (activity) (converted)
T3 construct: CAIX-expressing human HT-29 colorectal cancer cells; host or cells: HT-29 human colorectal cancer cells
Summary of the method: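 HT-29 cells in FACS buffer (PBS, 1% FCS) at 500.000 cells/ml were exposed to compounds competing with a labelled tracer, with biotinylated compounds detected by 1 μg/mL APC-streptavidin for 30 min on ice. APC/Cy5 median fluorescence was read by flow cytometry and IC50 derived by 4PL fit.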

[5] = tested on: SK-RC-52 (ccRCC) human cancer cell line xenograft; assay: In vivo efficacy, uptake and tolerability of 177Lu-DPI-4452 (and 68Ga-DPI-4452) in SK-RC-52 xenograft mouse model; set-up: species or system NMRI nude mice; conditions: SK-RC-52 model; for tolerability of treatment: 177Lu 33 or 100 MBq or 3×33 MBq, 68Ga 10 MBq, i.v.; for uptake in tumor compared to kidney and liver: SPECT/CT 4 h (177Lu) or PET/CT 1 h (68Ga)
Experimental: (§1) The human colorectal cancer cell line HT-29 was cultured in Modified McCoy's 5a Medium supplemented with 10% FBS+1% Pen/Strep, and the human clear cell renal cancer cell line SK-RC-52 was cultured in RPMI-1640 GlutaMax-I supplemented with 10% FBS+1% Pen/Strep.
(§2) 2×10^6 cells were suspended in 100 μL PBS and Matrigel (1:1) and subcutaneously implanted into the neck of anesthetized female immunodeficient NMRI nude mice. Tumor volume (0.52×(length×width^2)) and animal weight was monitored twice weekly until 42 days post treatment initiation. Animals were humanely euthanized by cervical dislocation at predefined study or humane endpoints.
(§3) Animals were randomized into equal groups based on tumor volume and body weight. Treatments were initiated at a mean group tumor volume of 140-180 mm^3 and administered intravenously in the tail vein in a 100 μL dosing volume.
(§4) For both models, treatment groups consisted of 10 mice per group and received either a A) Single administration (day 1) of vehicle, B) Single administration (day 1) of 100 MBq of ^177Lu-DPI-4452, C) Single administration (day 1) of 33 MBq of ^177Lu-DPI-4452 or D) Three administrations (day 1, 8, 15) of 33 MBq of ^177Lu-DPI-4452. To correlate the ^68Ga-DPI-4452 signal with the ^177Lu-DPI-4452 uptake in tumors, an additional satellite group E of 6 mice received a single administration (day 1) of 10 MBq of ^68Ga-DPI-4452 followed by a single administration (day 8) of 33 MBq of ^177Lu-DPI-4452.
(§5) In groups A-D, radioactivity uptake (as % of injected dose/gram tissue) was assessed in the tumor, kidney, and liver in 3 animals per treatment group by whole-body SPECT/CT imaging (nanoScan SPECT/CT, Mediso) at 4 h after each ^177Lu-DPI-4452 administration, using the following parameters: • Imaging bed: Two/three mice bed • CT acquisition • Helical scan, 480 projections • Pitch=1.0 • Voltage=50 kVp • Exposure=170 ms • SPECT acquisition: • Pinhole SPECT • Energy windows: Primor Peak 208 full width: 20%, Secondary 112.9, Tertiary: 56.1 keV • Acquisition time: Up to 30 min • Frame time: 30 s
(§6) In the satellite mice (group E), radioactivity uptake (as % of injected dose/gram tissue) was assessed in the tumor, kidney, and liver in all 6 animals by both whole-body SPECT imaging at 4 h after administration of 33 MBq ^177Lu-DPI-4452, and by whole-body PET/CT imaging (nanoScan PET/CT, Mediso) at 1 h after 10 MBq ^68Ga-DPI-4452 administration, using the following parameters: • Animals per bed: 3 • PET acquisition time: Up to 10 min • PET acquisition start: 1 hour after injection
(§7) One week later the 6 satellite mice were then assessed again for radioactivity uptake by whole-body SPECT/CT imaging at 4 h after the single ^177Lu-DPI-4452 administration using parameters as described above.
(§8) For both models blood sampling for hematology was performed on all animals in group A-D at study day −1, 7, 14 and at study end. Each mouse was restrained and 200 μl blood was obtained from the sublingual or jugular vein in EDTA-tubes and analyzed on the sampling day on a ProCyte Dx Hematology Analyzer with mouse settings. In addition, for the SK-RC-52 model at study day 14 and at study end (day 43), excess blood from the hematology analysis was spun and plasma was obtained (centrifugation at 2000 g for 10 mins at 4° C. in EDTA tubes). The plasma was analyzed for creatinine and urea concentrations using a KONELAB PRIME 30i instrument (Thermo Fisher Scientific).

[6] = tested on: HT-29 (CRC) human cancer cell line xenograft; assay: In vivo efficacy, uptake and tolerability of 177Lu-DPI-4452 (and 68Ga-DPI-4452) in HT-29 xenograft mouse model; set-up: species or system NMRI nude mice; conditions: HT-29 model; for tolerability of treatment: 177Lu 33 or 100 MBq or 3×33 MBq, 68Ga 10 MBq, i.v.; for uptake in tumor compared to kidney and liver: SPECT/CT 4 h (177Lu) or PET/CT 1 h (68Ga)
Experimental: as §1, §2, §3, §4, §5, §6, §7, §8

[7] = biological target: human CAIX (Homo sapiens, UniProt Q16790); assay: In vitro SPR binding assay of DPI-4452, natLu-DPI-4452 and natGa-DPI-4452 to CAIX (anti-human Fc capture); set-up: purchased SinoBliological (Sino Biological) 10107-H02H; conditions: SPR
Experimental: Surface Plasmon Resonance (SPR) studies were performed on a Biacore™ T200 using a ligand capture approach. Basically, anti-human Fc antibodies were immobilized on the surface of a sensor chip and CAIX was captured on the functionalized surface via its Fc Tag.
Then, each compound was injected at increasing concentrations on the captured CAIX in order to measure the in real-time interaction of the compound to its target (i.e. the captured CAIX). The in real-time monitoring of the association and dissociation of the interaction gives access to the interaction kinetics parameters (i.e. the association and dissociation rate constants and the resulting affinity constants).
• A series S CM5 sensor chip was used (Cytiva). • All reagents used for the immobilization procedure were part of the Amine Coupling Kit, type 2 and/or the Human Antibody Capture Kit (Cytiva). The running buffer (HBS-EP+) was prepared by 10-fold dilution of the stock HBS-EP+ 10× solution (Cytiva). • Anti-human Fc antibodies stock solution (0.5 mg/mL in 0.15 M NaCl) was diluted in 10 mM sodium acetate pH 5.0 to a final concentration of 25 μg/mL directly into a plastic vial 7 mm. • Amine coupling reagents were transferred into plastic vials 7 mm as follow: • 95 μL of 0.4 M 1-ethyl-3-(3-dimethylaminopropyl)carbodiimide (EDC). • 95 μL of 0.1 M N-hydroxysuccinimide (NHS). • An empty plastic vial 7 mm was added in the Biacore™ sample rack for mixing. • 150 μL of 1 M ethamolamine-HCl, pH 8.5. • Plastic vials were closed with rubber caps and the sample rack was inserted into the Biacore™ T200 sample compartment. • The Biacore™ T200 Amine Wizard was used to immobilize the anti-Human Fc antibodies on the four flow-cells of a series S CM5 sensor chip simultaneously with defined contact time of 360 seconds and flow-rate of 5 μL/min. • The immobilization procedure was performed at 25° C., following Cytiva's recommendations, as described in Table 23.
This procedure allowed to reach immobilization levels between 6000 and 9000 RU of anti-human Fc antibodies on the sensor chip surface.
• CAIX (Sino Biological, 10107-H02H) stock solution was prepared from lyophilized material reconstituted with deionized water to a concentration of 0.25 μg/mL (3.69 μM), following the supplier recommendations. • CAIX working solution was obtained after dilution of CAIX stock solution with PBS-P+1×, 0.1% DMSO to a final concentration of 200 nM directly in a Biacore™ plastic vial.
• For each measurement, the raw surface plasmon resonance response (RU) was plotted against time (s) as a sensorgram using the Biacore™ T200 Control Software. • Raw data were corrected by double referencing with subtraction of the signal of both the reference flow-cell and the blank cycle. • The association and dissociation rate constants (ka and kd, respectively), as well as the dissociation constant KD and dissociation half-life t1/2 were determined from the corrected sensorgrams by fitting the data to a 1:1 Langmuir binding model with the Biacore™ T200 evaluation software.

Structure (SMILES)	% intact compound remaining (incubation time) [1] [%]	t1/2 category (activity) [2]	Kd [2] [µM]	% intact compound remaining after 24 h incubation [3] [%]	IC50 [4] [µM]	tolerability of treatment [5]	uptake in tumor compared to kidney and liver [5]	tolerability of treatment [6]	uptake in tumor compared to kidney and liver [6]	affinity of binding to CAIX [7]	also measured
CC(C)C[C@@H]1NC(=O)[C@H](Cc2c[nH]c3ccccc23)NC(=O)[C@H](CC(=O)O)NC(=O)[C@H]2CCCN2C(=O)[C@H](CCC(=O)O)NC(=O)[C@@H](NC(=O)[C@H](Cc2ccc(O)cc2)NC(=O)[C@@H](NC(=O)CN2CCC(NC(=O)CN3CCN(CC(=O)O)CCN(CC(=O)O)CCN(CC(=O)O)CC3)CC2)C(C)C)CSCc2cccc(c2)CSC[C@@H](C(N)=O)NC(=O)[C@H](C)NC(=O)[C@H](Cc2c[nH]c3ccccc23)NC(=O)[C@H]([C@@H](C)O)NC1=O [3BP-3432] ({DOTA}-[X2]VYCE[dP]DWLTWAC-NH2; linker 4-13 via mXylylene)	98	A (t1/2>15.0 minutes)	< 0.01	>95	< 0.01						
CC(=O)N[C@H](C(=O)N[C@@H](Cc1ccc(O)cc1)C(=O)N[C@H]1CSCc2cccc(c2)CSC[C@@H](C(N)=O)NC(=O)[C@H](CCC(=O)NCCCNC(=O)CN2CCN(CC(=O)O)CCN(CC(=O)O)CCN(CC(=O)O)CC2)NC(=O)[C@H](Cc2c[nH]c3ccccc23)NC(=O)[C@H]([C@@H](C)O)NC(=O)[C@H](CC(C)C)NC(=O)[C@H](Cc2c[nH]c3ccccc23)NC(=O)[C@H](CC(=O)O)NC(=O)[C@H]2CCCN2C(=O)[C@H](CCC(=O)O)NC1=O)C(C)C [3BP-3478, Ac-Val-Tyr-[Cys(3MeBn)-Glu-pro-Asp-Trp-Leu-Thr-Trp-Glu(NH-Apr-DOTA)-Cys]-NH2] (Ac-VYCE[dP]DWLTWE(NH(CH2)3NHDOTA)C-NH2; linker 3-12 via mXylylene)	>95	A (t1/2>15.0 minutes)	< 0.01	63	< 0.01						
CC(C)C[C@@H]1NC(=O)[C@H](Cc2cccc(NC(=O)CCCS(N)(=O)=O)c2)NC(=O)[C@H](CC(=O)O)NC(=O)[C@H]2CCCN2C(=O)[C@H](CCC(=O)O)NC(=O)[C@@H](NC(=O)[C@H](CCC(N)=O)NC(=O)CN2CCN(C(=O)CN3CCN(CC(=O)O)CCN(CC(=O)O)CCN(CC(=O)O)CC3)CC2)CSCc2cccc(c2)CSC[C@@H](C(N)=O)NC(=O)[C@H](CO)NC(=O)[C@H](Cc2c[nH]c3ccccc23)NC(=O)[C@H]([C@@H](C)O)NC1=O [^68Ga-DPI-4452, metal not drawn]						well tolerated	Preferential tumor uptake	well tolerated	Preferential tumor uptake		
CC(C)C[C@@H]1NC(=O)[C@H](Cc2cccc(NC(=O)CCCS(N)(=O)=O)c2)NC(=O)[C@H](CC(=O)O)NC(=O)[C@H]2CCCN2C(=O)[C@H](CCC(=O)O)NC(=O)[C@@H](NC(=O)[C@H](CCC(N)=O)NC(=O)CN2CCN(C(=O)CN3CCN(CC(=O)O)CCN(CC(=O)O)CCN(CC(=O)O)CC3)CC2)CSCc2cccc(c2)CSC[C@@H](C(N)=O)NC(=O)[C@H](CO)NC(=O)[C@H](Cc2c[nH]c3ccccc23)NC(=O)[C@H]([C@@H](C)O)NC1=O [^177Lu-DPI-4452, metal not drawn]						well tolerated	Preferential uptake in the tumor compared to kidney and liver	well tolerated	Preferential uptake in the tumor compared to kidney and liver		white blood cells, lymphocytes and neutrophils versus vehicle ([5]; 33/100 MBq): relative suppression; creatinine and urea levels ([5]; plasma, day 14 and study end): No differences in creatinine and urea levels between treatment groups; white blood cells, lymphocytes and neutrophils versus vehicle ([6]; 33/100 MBq): relative suppression
CC(C)C[C@@H]1NC(=O)[C@H](Cc2cccc(NC(=O)CCCS(N)(=O)=O)c2)NC(=O)[C@H](CC(=O)O)NC(=O)[C@H]2CCCN2C(=O)[C@H](CCC(=O)O)NC(=O)[C@@H](NC(=O)[C@H](CCC(N)=O)NC(=O)CN2CCN(C(=O)CN3CCN(CC(=O)O)CCN(CC(=O)O)CCN(CC(=O)O)CC3)CC2)CSCc2cccc(c2)CSC[C@@H](C(N)=O)NC(=O)[C@H](CO)NC(=O)[C@H](Cc2c[nH]c3ccccc23)NC(=O)[C@H]([C@@H](C)O)NC1=O [^natGa-DPI-4452, metal not drawn]										subnanomolar affinity	
CC(C)C[C@@H]1NC(=O)[C@H](Cc2cccc(NC(=O)CCCS(N)(=O)=O)c2)NC(=O)[C@H](CC(=O)O)NC(=O)[C@H]2CCCN2C(=O)[C@H](CCC(=O)O)NC(=O)[C@@H](NC(=O)[C@H](CCC(N)=O)NC(=O)CN2CCN(C(=O)CN3CCN(CC(=O)O)CCN(CC(=O)O)CCN(CC(=O)O)CC3)CC2)CSCc2cccc(c2)CSC[C@@H](C(N)=O)NC(=O)[C@H](CO)NC(=O)[C@H](Cc2c[nH]c3ccccc23)NC(=O)[C@H]([C@@H](C)O)NC1=O [^natLu-DPI-4452, metal not drawn]										subnanomolar affinity	
